In patent US7741283B2, “Compositions and methods for inhibiting cell proliferation” (St. Louis University, priority 2003, dated 2010):
Entries after “also recorded” stand apart in the source; their conditions may differ. Blank lines part the entries; values can stand above or below the compound they belong to.

Experiments:
Mv1Lu cells [1] = experiment: Internalization and degradation of cell surface-bound 125I-TGF-β1 or 125I-α2M*, Mv1Lu cells; assay type: cell-based, mink; details: 10 μM, pH 7.4, 1 hr at 37° C.
Experimental: After 1 hr at 37° C., the medium was collected and precipitated with 10% trichloroacetic acid (TCA). The TCA-soluble radioactive material in the medium represented the cellular degradation products of 125I-TGF-β1 or 125I-α2M*. The cells were then treated with trypsin (5 mg/ml), maintained for 20 min at 0° C. and centrifuged. The radioactivity in the supernate and cell pellets represented cell surface-bound and internalized 125I-TGF-β1 or 125I-α2M*, respectively. The experiments were performed in quadruplicate.
After 2.5 hr, cells were washed, then warmed to 37° C.

MEF cells [2] = experiment: Internalization and degradation of cell surface-bound 125I-ligand, MEF cells; assay type: cell-based, mouse; details: for Cell surface-bound ligand internalized and degraded: MEF
[3] = test system: cell surface α2M* receptors; details: 30 μM, reversible; cited from earlier work
LRP-1 = molecular target: T1, LRP-1 (Mus musculus, UniProt Q91ZX7); experiment: 125I-α2M* binding to MEF cells at pH 7.4; details: pH 7.4; read-out: IC50, inhibition of ^125I-α2M* binding to LRP-1
T1 construct: endogenous in cells; host or cells: MEF (mouse embryonic fibroblasts)

acidic pH binding sites [4] = molecular target: T2, acidic pH binding sites (Mus musculus, UniProt P14824); experiment: Specific binding of 125I-ligands to MEF cells at acidic pH; details: MEF cells
T2 sequence (P14824 2-673): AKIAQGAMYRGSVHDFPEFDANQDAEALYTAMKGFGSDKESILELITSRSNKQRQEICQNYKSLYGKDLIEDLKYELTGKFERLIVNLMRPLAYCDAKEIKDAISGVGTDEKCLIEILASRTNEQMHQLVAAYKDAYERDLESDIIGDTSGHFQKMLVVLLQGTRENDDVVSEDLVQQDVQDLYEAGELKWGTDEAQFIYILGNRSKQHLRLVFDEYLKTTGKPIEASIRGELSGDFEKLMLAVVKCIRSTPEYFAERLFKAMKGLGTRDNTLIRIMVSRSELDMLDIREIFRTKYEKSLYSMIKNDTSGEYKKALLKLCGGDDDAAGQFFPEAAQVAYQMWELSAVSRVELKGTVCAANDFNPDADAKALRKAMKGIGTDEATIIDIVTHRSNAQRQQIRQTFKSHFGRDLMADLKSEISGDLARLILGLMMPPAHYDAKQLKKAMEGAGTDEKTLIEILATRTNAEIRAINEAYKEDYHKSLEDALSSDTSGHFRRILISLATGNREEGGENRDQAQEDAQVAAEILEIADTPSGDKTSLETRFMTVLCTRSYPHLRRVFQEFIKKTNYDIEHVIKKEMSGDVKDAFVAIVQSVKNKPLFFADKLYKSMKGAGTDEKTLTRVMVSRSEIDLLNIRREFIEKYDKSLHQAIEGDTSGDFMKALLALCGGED

PEA-C11 cells [5] = experiment: [methyl-3H] thymidine incorporation, PEA-C11 cells; assay type: cell-based, mink; details: TGF-β1 20 pM
MEF cells [6] = experiment: Cell growth (cell number), MEF cells; assay type: cell-based, mouse; details: TGF-β1 20 pM
Experimental: (§1) FIG. 7 depicts the effect of TGF-β1 on DNA synthesis (A), cell growth (B) and PAI-1 expression (C) in MEF and PEA-13 cells. (A) Cells were treated with various concentrations of TGF-β1 as indicated. DNA synthesis was determined by measuring [methyl-^3H] thymidine incorporation into cellular DNA. The [methyl-^3H] thymidine incorporation in cells treated without TGF-β1 (100,861±3,720 and 103,262±6,722 cpm/well for MEF and PEA-13 cells, respectively) was taken as 0% inhibition. The negative values of inhibition indicate mitogenic activity. […] Each datapoint is the mean±S.D. of quadruplicate determinations. […] Data are representative of six similar experiments. (B) Cells were treated with various concentrations of TGF-β1 as indicated. The cell number was counted after a 4 day incubation. […] The negative values of the inhibition indicate the growth stimulatory activity. Each datapoint is the mean±S.D. of quadruplicate determinations. […] Data are representative of four similar experiments. (C) Cells were treated with various concentrations of TGF-β1 as indicated. The PAI-1 expression in these cells was determined by Northern blot analysis. […] The relative levels of the transcripts were quantified by a PhosphoImager. […]
(§2) Cells were plated at a density of 1-2×10^4 cells/dish in DMEM containing 1% fetal calf serum. The cell number was counted every day or after a 3-day incubation using a hematocytometer. […]

MEF cells [7] = experiment: [methyl-3H] thymidine incorporation, MEF cells; assay type: cell-based, mouse; details: TGF-β1 20 pM
Experimental: (§3) FIG. 7 depicts the effect of TGF-β1 on DNA synthesis (A), cell growth (B) and PAI-1 expression (C) in MEF and PEA-13 cells. (A) Cells were treated with various concentrations of TGF-β1 as indicated. DNA synthesis was determined by measuring [methyl-^3H] thymidine incorporation into cellular DNA. The [methyl-^3H] thymidine incorporation in cells treated without TGF-β1 (100,861±3,720 and 103,262±6,722 cpm/well for MEF and PEA-13 cells, respectively) was taken as 0% inhibition. The negative values of inhibition indicate mitogenic activity. […] Each datapoint is the mean±S.D. of quadruplicate determinations. […] Data are representative of six similar experiments. (B) Cells were treated with various concentrations of TGF-β1 as indicated. The cell number was counted after a 4 day incubation. […] The negative values of the inhibition indicate the growth stimulatory activity. Each datapoint is the mean±S.D. of quadruplicate determinations. […] Data are representative of four similar experiments. (C) Cells were treated with various concentrations of TGF-β1 as indicated. The PAI-1 expression in these cells was determined by Northern blot analysis. The expression of G3PDH was used as control. The relative levels of the transcripts were quantified by a PhosphoImager. Data are representative of four similar experiments. […]

H1299/LRP cells [8] = experiment: Cell growth (cell number), H1299/LRP cells; assay type: cell-based, human; details: TGF-β1 20 pM or IGFBP-3 1 μg/ml, 3-day
IRS-2 [9] = experiment: 32P metabolic labeling and immunoprecipitation of IRS-2, DR26 cells; assay type: cell-based, mink
IRS-2 [10] = experiment: 32P metabolic labeling and immunoprecipitation of IRS-2, Mv1Lu cells; assay type: cell-based, mink; details: Mv1Lu; IGFBPs 1 μg/ml; TGF-β1 20 pM
H1299/vector cells [11] = experiment: [methyl-3H] thymidine incorporation, H1299/vector cells; assay type: cell-based, human; details: various concentrations
PEA-C11 cells [12] = experiment: Cell growth (cell number), PEA-C11 cells; assay type: cell-based, mink; details: TGF-β1 20 pM, PEA-C11, 4-day
Experimental: (§4) FIG. 6 depicts the effects of IGFBP-3 and TGF-β1 on DNA synthesis (A), cell growth (B) and PAI-1 expression (C) in Mv1Lu and PEA-C11 cells. (A,B) Cells were incubated with various concentrations of IGFBP-3 (a) or TGF-β1 (b) as indicated. DNA synthesis and cell growth were determined by measuring the [methyl-^3H] thymidine incorporation into cellular DNA after 18 hr incubation (A) and by counting cell number after a 4-day incubation (B), respectively. The [methyl-^3H] thymidine incorporation in cells treated without IGFBP-3 and TGF-β1 (29,170±1,657 and 59,947±7,692 cpm/well for Mv1Lu and PEA-C11 cells, respectively) were taken as 0% inhibition. […] Each data point is the mean±S.D. of quadruplicate determinations. […] Data are representative of eight similar experiments. (C) Cells were incubated with various concentrations of TGF-β1 as indicated. After 2 hr at 37° C., the PAI-1 expression was determined by Northern blot analysis. The expression of glyceraldehyde-3-phosphate dehydrogenase (G3PDH) was used as control. The relative levels of the transcripts were quantified by a Phospholmager. Data are representative of four similar experiments.
(§5) Cells were plated at a density of 1-2×10^4 cells/dish in DMEM containing 1% fetal calf serum. The cell number was counted every day or after a 3-day incubation using a hematocytometer. The assays were performed in quadruplicate.

PEA-13 cells [13] = experiment: Cell growth (cell number), PEA-13 cells; assay type: cell-based, mouse; details: TGF-β1 20 pM
Experimental: as §1, §2

LRP-1/TβR-V = LRP-1/TβR-V (Homo sapiens, UniProt Q07954); details: pH 7.4; read-out: Kd for (high affinity) binding to LRP-1/TβR-V; cited from earlier work
acidic pH binding sites [14] = molecular target: T2, acidic pH binding sites; experiment: Specific binding of 125I-ligands to PEA-13 cells at acidic pH; parameters: endogenous in cells; host or cells: PEA-13 (LRP-1-deficient mouse embryonic fibroblasts); details: PEA-13 cells
acidic pH binding sites [15] = molecular target: acidic pH binding sites (Neogale vison, UniProt A0A8C7BSJ2); experiment: Specific binding of 125I-ligands to Mv1Lu cells at acidic pH; parameters: species or system mink; details: Mv1Lu cells; for pH of optimal/maximal binding: EGTA/BAPTA- or GST-RAP-sensitive binding, 0° C.
H1299/LRP cells [16] = experiment: [methyl-3H] thymidine incorporation, H1299/LRP cells; assay type: cell-based, human; details: various concentrations
H1299/vector cells [17] = experiment: Cell growth (cell number), H1299/vector cells; assay type: cell-based, human; details: TGF-β1 20 pM or IGFBP-3 1 μg/ml, 3-day
PEA-13 cells [18] = experiment: [methyl-3H] thymidine incorporation, PEA-13 cells; assay type: cell-based, mouse; details: TGF-β1 20 pM
Experimental: as §3

[19] = test system: 32D cells expressing vector only; experiment: [methyl-3H] thymidine incorporation, 32D cells transfected with vector only; assay type: cell-based, murine
Mv1Lu cells [20] = experiment: [methyl-3H] thymidine incorporation (DNA synthesis), Mv1Lu cells; assay type: cell-based, mink; details: Mv1Lu
32D/IRS-1 cells = experiment: [methyl-3H] thymidine incorporation, 32D/IRS-1 cells; assay type: cell-based, murine; details: 32D cells expressing IRS-1
Mv1Lu cells [21] = experiment: Cell growth (cell number), Mv1Lu cells; assay type: cell-based, mink; details: TGF-β1 20 pM, 4-day
Experimental: as §4, §5

32D/IR/IRS-2 cells = experiment: [methyl-3H] thymidine incorporation, 32D/IR/IRS-2 cells; assay type: cell-based, murine; details: 32D cells expressing IRS-2 and insulin receptor
[22] = test system: TβR-V purified from bovine liver plasma membranes; experiment: 125I-IGFBP-3 / 125I-TGF-β1 affinity labeling of purified TβR-V; assay type: binding; details: DSS, β1^25(41-65) 20 μM, RAP 10-40 μg/ml, α2M* 100 nM, lactoferrin 100 nM
PEA-13 cells [23] = experiment: Internalization and degradation of cell surface-bound 125I-α2M*, PEA-13 cells; assay type: cell-based, mouse; details: PEA-13, pH 6.0, 1 hr at 37° C.

Sequence of acidic pH binding sites (Neogale vison, UniProt A0A8C7BSJ2) (A0A8C7BSJ2 entry or part of it): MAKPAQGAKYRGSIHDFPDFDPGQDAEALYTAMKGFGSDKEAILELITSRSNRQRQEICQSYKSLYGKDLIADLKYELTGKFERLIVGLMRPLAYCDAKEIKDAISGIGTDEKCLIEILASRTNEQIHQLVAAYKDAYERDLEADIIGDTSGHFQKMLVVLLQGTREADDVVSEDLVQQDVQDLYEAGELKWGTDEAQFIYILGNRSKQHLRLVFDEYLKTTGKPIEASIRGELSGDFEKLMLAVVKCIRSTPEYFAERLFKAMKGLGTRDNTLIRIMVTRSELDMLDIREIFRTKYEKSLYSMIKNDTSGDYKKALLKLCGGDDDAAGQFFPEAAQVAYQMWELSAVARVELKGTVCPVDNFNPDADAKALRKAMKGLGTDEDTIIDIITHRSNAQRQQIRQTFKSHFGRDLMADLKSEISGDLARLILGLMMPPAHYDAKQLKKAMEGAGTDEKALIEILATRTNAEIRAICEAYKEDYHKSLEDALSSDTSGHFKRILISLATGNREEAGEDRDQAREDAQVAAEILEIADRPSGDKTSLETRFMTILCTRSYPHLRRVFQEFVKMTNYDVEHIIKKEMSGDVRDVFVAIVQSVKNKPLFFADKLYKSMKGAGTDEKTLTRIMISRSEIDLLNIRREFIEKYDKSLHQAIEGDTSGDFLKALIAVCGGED
Sequence of LRP-1/TβR-V (Q07954 20-4544): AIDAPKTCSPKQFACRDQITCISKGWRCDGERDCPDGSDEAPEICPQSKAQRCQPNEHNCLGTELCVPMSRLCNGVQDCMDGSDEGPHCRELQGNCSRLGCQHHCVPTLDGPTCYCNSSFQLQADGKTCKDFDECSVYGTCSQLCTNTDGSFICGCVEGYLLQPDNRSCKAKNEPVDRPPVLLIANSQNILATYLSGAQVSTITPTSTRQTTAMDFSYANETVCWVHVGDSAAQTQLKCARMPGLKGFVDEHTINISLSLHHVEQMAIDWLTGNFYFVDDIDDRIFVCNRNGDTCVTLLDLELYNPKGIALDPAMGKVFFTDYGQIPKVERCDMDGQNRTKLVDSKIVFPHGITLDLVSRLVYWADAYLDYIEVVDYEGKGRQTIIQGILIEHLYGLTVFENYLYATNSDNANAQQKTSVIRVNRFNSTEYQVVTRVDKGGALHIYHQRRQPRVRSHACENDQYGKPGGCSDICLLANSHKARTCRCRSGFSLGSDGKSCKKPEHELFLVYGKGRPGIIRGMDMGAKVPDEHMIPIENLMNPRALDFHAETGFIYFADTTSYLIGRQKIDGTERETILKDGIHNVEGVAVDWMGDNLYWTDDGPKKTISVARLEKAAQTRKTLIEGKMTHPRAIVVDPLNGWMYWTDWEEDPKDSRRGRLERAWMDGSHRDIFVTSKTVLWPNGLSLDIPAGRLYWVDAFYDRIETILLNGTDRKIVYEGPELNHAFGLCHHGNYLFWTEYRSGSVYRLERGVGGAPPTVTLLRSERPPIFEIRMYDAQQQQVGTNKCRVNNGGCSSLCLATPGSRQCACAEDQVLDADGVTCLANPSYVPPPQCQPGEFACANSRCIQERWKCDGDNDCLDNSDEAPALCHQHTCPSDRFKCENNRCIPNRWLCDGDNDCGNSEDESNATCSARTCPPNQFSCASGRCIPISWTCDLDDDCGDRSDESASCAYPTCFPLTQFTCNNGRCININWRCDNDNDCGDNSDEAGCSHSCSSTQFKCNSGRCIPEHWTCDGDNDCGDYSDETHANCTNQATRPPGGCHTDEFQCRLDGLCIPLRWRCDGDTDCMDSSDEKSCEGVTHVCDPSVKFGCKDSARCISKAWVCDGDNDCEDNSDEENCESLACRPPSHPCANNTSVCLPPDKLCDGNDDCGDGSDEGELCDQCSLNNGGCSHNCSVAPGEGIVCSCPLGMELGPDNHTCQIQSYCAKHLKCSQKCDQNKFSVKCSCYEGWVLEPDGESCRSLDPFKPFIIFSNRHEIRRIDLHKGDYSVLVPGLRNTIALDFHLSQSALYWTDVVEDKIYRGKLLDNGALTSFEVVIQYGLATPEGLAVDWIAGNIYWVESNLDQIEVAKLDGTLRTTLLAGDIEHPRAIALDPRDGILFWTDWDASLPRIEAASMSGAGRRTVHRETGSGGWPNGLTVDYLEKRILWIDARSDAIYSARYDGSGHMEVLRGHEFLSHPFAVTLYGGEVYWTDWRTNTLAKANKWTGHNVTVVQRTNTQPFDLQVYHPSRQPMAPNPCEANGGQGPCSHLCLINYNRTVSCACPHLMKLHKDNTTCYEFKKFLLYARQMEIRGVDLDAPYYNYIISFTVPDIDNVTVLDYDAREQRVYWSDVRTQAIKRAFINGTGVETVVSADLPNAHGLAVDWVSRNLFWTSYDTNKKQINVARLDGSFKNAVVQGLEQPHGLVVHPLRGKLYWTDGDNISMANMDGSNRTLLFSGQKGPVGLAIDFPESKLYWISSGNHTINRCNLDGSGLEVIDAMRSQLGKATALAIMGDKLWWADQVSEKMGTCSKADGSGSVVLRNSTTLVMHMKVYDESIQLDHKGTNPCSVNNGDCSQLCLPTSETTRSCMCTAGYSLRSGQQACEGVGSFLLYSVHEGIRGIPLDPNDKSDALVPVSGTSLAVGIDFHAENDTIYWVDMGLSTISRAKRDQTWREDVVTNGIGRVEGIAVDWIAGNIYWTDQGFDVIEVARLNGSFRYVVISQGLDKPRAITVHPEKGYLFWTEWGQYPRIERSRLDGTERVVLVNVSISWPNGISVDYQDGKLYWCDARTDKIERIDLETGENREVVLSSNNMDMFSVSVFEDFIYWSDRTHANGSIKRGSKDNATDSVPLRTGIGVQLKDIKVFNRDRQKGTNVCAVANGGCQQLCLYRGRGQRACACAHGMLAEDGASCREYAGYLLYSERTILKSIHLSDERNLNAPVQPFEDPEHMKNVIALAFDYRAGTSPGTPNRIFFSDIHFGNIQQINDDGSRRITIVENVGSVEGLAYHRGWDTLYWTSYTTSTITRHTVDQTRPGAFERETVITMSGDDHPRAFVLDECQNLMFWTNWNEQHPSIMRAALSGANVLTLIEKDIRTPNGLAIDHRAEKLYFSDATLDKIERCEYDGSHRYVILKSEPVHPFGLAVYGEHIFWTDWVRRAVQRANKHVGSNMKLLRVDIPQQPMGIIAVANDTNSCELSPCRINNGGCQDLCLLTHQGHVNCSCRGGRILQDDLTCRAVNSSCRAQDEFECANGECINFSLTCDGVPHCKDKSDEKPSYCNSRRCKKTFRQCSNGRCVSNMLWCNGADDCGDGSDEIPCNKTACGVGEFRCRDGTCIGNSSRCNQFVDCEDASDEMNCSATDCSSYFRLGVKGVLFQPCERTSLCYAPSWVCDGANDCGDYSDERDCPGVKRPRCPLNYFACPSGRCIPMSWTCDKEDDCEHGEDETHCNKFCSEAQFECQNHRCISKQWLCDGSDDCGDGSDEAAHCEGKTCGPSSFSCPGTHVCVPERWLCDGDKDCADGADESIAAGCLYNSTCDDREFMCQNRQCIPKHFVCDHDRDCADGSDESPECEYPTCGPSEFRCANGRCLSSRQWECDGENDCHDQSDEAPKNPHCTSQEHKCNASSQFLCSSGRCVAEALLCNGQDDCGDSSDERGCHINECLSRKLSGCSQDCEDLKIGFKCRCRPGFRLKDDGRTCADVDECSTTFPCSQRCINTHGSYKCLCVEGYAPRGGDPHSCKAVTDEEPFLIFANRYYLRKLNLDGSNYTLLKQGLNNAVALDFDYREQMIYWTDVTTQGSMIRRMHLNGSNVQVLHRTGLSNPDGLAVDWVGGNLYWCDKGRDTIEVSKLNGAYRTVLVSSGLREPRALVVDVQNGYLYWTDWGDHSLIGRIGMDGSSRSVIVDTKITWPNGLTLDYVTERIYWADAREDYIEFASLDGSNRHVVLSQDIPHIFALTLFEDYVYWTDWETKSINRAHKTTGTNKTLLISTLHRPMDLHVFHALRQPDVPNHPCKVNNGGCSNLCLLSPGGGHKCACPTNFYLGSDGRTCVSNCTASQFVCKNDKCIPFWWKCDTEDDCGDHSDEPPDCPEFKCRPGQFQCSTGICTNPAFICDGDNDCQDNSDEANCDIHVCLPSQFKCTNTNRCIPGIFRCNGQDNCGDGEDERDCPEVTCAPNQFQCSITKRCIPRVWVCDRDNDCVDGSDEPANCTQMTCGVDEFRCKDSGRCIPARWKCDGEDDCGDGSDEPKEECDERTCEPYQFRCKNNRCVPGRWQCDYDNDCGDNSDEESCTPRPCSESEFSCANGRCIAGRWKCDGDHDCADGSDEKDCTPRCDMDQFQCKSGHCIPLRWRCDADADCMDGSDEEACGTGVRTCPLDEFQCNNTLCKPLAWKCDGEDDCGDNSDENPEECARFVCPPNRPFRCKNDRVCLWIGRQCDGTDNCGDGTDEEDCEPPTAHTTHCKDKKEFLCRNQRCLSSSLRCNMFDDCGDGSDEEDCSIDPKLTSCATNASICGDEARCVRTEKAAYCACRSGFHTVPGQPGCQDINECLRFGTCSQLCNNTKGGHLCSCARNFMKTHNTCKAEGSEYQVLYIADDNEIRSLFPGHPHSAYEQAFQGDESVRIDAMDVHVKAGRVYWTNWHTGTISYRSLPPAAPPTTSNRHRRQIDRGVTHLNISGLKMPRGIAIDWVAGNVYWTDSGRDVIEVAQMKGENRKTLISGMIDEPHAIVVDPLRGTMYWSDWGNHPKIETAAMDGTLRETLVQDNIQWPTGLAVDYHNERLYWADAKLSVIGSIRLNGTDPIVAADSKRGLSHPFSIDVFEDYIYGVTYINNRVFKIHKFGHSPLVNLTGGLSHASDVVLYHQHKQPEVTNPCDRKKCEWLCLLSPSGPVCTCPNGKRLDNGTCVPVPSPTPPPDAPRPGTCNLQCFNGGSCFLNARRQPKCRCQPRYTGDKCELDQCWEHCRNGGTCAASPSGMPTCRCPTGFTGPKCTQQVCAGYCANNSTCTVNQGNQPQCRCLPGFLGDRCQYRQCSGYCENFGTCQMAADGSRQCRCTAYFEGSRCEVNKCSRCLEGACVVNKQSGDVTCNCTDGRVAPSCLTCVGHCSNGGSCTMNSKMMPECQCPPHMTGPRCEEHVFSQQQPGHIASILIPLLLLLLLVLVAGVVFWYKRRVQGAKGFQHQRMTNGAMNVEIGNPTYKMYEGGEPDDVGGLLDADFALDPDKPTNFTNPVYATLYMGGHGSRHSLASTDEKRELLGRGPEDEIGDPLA

- IC50 (LRP-1): 25000 to 30000 nM
- Inhibition of ^125I-α2M* binding to cells (acidic pH binding sites [4]; pH 5.5, verapamil and W-5 at 100 μM): most potent inhibitors
Compound: CN1CCN(CCCN2c3ccccc3Sc3ccc(C(F)(F)F)cc32)CC1 [trifluoperazine, reference compound]
- Degradation of cell surface-bound ^125I-TGF-β1 or ^125I-α2M* (Mv1Lu cells [1]): completely blocked; also recorded: completely inhibits
- Degradation of cell surface-bound ^125I-α2M* or ^125I-TGF-β1 (MEF cells [2]; MEF cells, pH 7.4): trifluoperazine-inhibitable degradation
- Depletion of cell surface α2M* receptors [3]: ~50%

- pH of maximal binding (acidic pH binding sites [14]): 5
- pH of optimal/maximal binding (acidic pH binding sites [15]): 5
- pH of maximal binding (acidic pH binding sites [4]): 5
Compound: TGF-β1: human transforming growth factor-β1
- Inhibition of DNA synthesis (PEA-C11 cells [5]): ~70%
- Inhibition of cell growth (MEF cells [6]): 30-40%
- Inhibition of DNA synthesis (MEF cells [7]): 30-40%
- Effect on cell growth (H1299/LRP cells [8]): inhibited
- 32P-labeled phosphorylation of IRS-2 (IRS-2 [9]; TGF-β1 alone): capable of stimulating
- Dephosphorylation of IRS-2 (IRS-2 [9]; TGF-β1 up to 400 pM): did not induce dephosphorylation
- Induction of specific dephosphorylation (mobility change) of 32P-labeled IRS-2 (IRS-2 [10]): inability
- Effect on DNA synthesis (H1299/vector cells [11]): acted as mitogens or growth stimulators
- Inhibition of cell growth (PEA-C11 cells [12]): ~70%
- Stimulation of cell growth (PEA-13 cells [13]): ≤ 20%
- Kd (LRP-1/TβR-V): 0.05 to 0.4 nM
- Effect on DNA synthesis (H1299/LRP cells [16]): inhibited
- Effect on cell growth (H1299/vector cells [17]): acted as mitogens or growth stimulators
- Stimulation of DNA synthesis (PEA-13 cells [18]): ≤ 20%
- Inhibition of DNA synthesis [19]: minimally or not at all
- Inhibition of DNA synthesis (Mv1Lu cells [20]; TGF-β1 0.5 pM): ~75%
- Inhibition of DNA synthesis (Mv1Lu cells [20]; TGF-β1 20 pM): 90-100%
- Growth inhibitory response (DNA synthesis) (32D/IRS-1 cells): potent growth inhibitory response
- Inhibition of cell growth (Mv1Lu cells [21]): 90-100%
- Growth inhibitory response (DNA synthesis) (32D/IR/IRS-2 cells): potent growth inhibitory response

Compound: α2M*: α2M activated by methylamine
- Cell surface-bound ligand internalized and degraded (MEF cells [2]; pH 6.0, 1 hr at 37° C.): ~70%
- Cell surface-bound ligand internalized and degraded (MEF cells [2]; pH 7.4, 1 hr): more than 90%
- ^125I-TGF-β1 binding to purified TβR-V ([22]; 0.1 nM 125I-TGF-β1, […] 0° C.): blocked
- ^125I-IGFBP-3 binding to purified TβR-V ([22]; 10 nM 125I-IGFBP-3, […] 0° C.): did not inhibit
- Kd (LRP-1/TβR-V): ~0.075 nM
- pH of maximal binding (acidic pH binding sites [14]): 5
- IC50 (acidic pH binding sites [14]; acidic pH, read-out: IC50, inhibition of ^125I-α2M* binding): ~120 nM
- Cell surface-bound ligand internalized and degraded (PEA-13 cells [23]): ~70%
- Number of binding sites (Scatchard plot) (acidic pH binding sites [15]; pH 5): ~1×10^6 sites/cell
- Saturating concentration of binding (acidic pH binding sites [15]; pH 5): ~120 nM
- Kd (acidic pH binding sites [15]; pH 5, read-out: Apparent Kd (Scatchard plot)): ~51 nM
- pH of optimal/maximal binding (acidic pH binding sites [15]): 5
- pH of maximal binding (acidic pH binding sites [4]): 5
